Measurements taken from patent US7291618B2, “Therapeutic compounds” (Pfizer Inc, priority 2004, dated 2007).

Legend:
[1] = target: T1, DPP-IV (Homo sapiens, UniProt P27487); test: In vitro Assay for DPP-IV Inhibition; format: biochemical; details: read-out: IC50 against DPP-IV
T1 construct: purchased MP Biomedicals, Livermore, Calif
Experimental: 150 μL of an enzyme-substrate solution is pipetted into microtiter wells of a polystyrene 96-well plate, and maintained at 4° C. The enzyme-substrate solution comprises 50 μM Gly-Pro-4-methoxy-β-naphthylamide hydrochloride in 50 mM Tris assay buffer pH 7.3 containing 0.1M sodium chloride, 0.1% (v/v) Triton and 50 μU/mL DPP-IV (MP Biomedicals, Livermore, Calif.; DPP-IV 5 mU/mL stock). 5 μL per well of the compound of formula (I) is added, bringing the final concentrations of the formula (I) compound to between 3 μM and 10 nM per well.
Controls. Enzyme is omitted from four (4) wells, as a reagent blank. 5 μL of 3 mM Diprotin A (Bachem Bioscience, Inc.; King of Prussia, Pa.) is added to four wells as a positive quality control, providing a final Diprotin A concentration of 100 μM. To measure total enzyme activity (i.e., a negative control), without the influence of any compounds of formula (I), 5 μL of distilled water is added to four wells.
The entire assay is incubated overnight (between 14 and 18 hours) at 37° C. […]

[2] = Comparative Rat Pharmacokinetics Experiments (plasma concentrations over time after oral gavage); details: male, Sprague-Dawley, 5 mg/kg
[3] = rat, in vivo, po, 5 mg/kg

T1 sequence (P27487 whole entry, species assumed): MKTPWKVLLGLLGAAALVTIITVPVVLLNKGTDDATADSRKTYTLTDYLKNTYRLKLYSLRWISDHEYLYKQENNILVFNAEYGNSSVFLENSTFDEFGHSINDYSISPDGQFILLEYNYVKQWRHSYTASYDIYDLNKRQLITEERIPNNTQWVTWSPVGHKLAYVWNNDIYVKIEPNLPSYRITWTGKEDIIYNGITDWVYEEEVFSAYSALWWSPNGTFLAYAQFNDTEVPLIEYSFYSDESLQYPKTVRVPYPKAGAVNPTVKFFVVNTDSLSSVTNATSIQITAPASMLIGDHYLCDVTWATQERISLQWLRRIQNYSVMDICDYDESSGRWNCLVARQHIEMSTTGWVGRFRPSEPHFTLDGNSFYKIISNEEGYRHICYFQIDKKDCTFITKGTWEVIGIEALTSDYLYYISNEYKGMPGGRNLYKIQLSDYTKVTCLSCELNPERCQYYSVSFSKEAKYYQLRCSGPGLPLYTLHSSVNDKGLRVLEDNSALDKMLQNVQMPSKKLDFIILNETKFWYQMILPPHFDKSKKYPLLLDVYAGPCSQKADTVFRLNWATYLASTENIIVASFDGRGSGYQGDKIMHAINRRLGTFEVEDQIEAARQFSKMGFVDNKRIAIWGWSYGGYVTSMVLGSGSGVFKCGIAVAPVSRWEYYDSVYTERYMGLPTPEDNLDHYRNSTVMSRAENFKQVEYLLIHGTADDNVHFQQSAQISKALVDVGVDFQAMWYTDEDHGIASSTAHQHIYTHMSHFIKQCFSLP

N#Cc1nccnc1N1CCN([C@@H]2CN[C@H](C(=O)N3C[C@@H](F)[C@@H](F)C3)C2)CC1 (relative stereo) [Example 10, ((2S,4S)-4-(4-(3-Cyanopyrazin-2-yl)piperazin-1-yl)pyrrolidin-2-yl)-((3R*,4S*)-3,4-difluoropyrrolidin-1-yl)-methanone]
IC50 [1]: 3.5 nM

O=C([C@@H]1C[C@H](N2CCN(c3ncccn3)CC2)CN1)N1CCC(F)(F)C1 [CPD 113, (3,3-Difluoropyrrolidin-1-yl)-((2S,4S)-4-(4-(pyrimidin-2-yl)piperazin-1-yl)pyrrolidin-2-yl)-methanone]
concentration at 0.25 h [2]: 1.41 µg/mL
concentration at 0.5 h [2]: 1.32 µg/mL
concentration at 0.75 h [2]: 0.979 µg/mL
concentration at 1 h [2]: 0.768 µg/mL
concentration at 2 h [2]: 0.289 µg/mL
concentration at 4 h [2]: 0.0978 µg/mL
concentration at 6 h [2]: 0.0493 µg/mL
concentration at 8 h [2]: 0.0328 µg/mL
plasma concentrations achieved and maintained, compared with the comparator compound [3]: significantly higher plasma concentrations
